The test system of series [1] is ASGPR on the surface of immortalized human hepatocyte HepG2 cells. The series can be described thus: DNP-GN3-mediated ternary complex formation: association of fluorescently labeled α-DNP antibody with HepG2 cells in suspension. Format: cell-based. Particulars: competition; FIG. 86B-86C; read-out: IC50, decrease of DNP-GN3-mediated cellular fluorescence. The text has this:
(§1) It was investigated whether DNP-GN3 could mediate the formation of a ternary complex between a fluorescently labeled α-DNP antibody and ASGPR on the surface of immortalized human hepatocyte HepG2 cells in suspension. […] The observed bell-shaped response to DNP-GN3 concentration is consistent with the prozone effect commonly observed in systems wherein a ternary complex is formed.

The nature of series [2]: Tolerability of DNP-GN3 and DNP-OH3 in mice (body weight, AST, ALT). The following applies: all tested concentrations; FIGS. 93A-93C. Format: in vivo. The protocol: FIGS. 93A-93C illustrate that DNP-GN3 and DNP-OH3 are not toxic to mice at all tested concentrations. FIG. 93A: mouse body weight following treatment with DNP-GN3 or DNP-OH3. Statistical differences were analyzed by T test. FIG. 93B: levels of aspartate transaminase (AST) in treated mice. Dashed lines represent the normal range. FIG. 93C: levels of alanine transaminase (ALT) in treated mice. Dashed lines represent the normal range.

For series [3], the system named is α-DNP antibody. The series can be described thus: Depletion of α-DNP antibody from serum in mice (ELISA). Format: in vivo. Particulars: negative control compound; FIG. 95. The protocol: FIG. 94 illustrates that serum levels of α-DNP antibody decrease more rapidly following repeated treatment with DNP-GN3. Serum antibody levels were measured using an ELISA assay. Each experimental group contained three mice. Statistical differences in experiments involving in vivo depletion of α-DNP antibody were assessed by repeated measures two-way ANOVA with Tukey's tests for post-hoc comparison of simple effects between each of the treatment groups and PBS.
Single doses of DNP-GN3 were also found to be efficacious at mediating α-DNP antibody depletion, albeit less effectively than daily dosing (FIG. 96). […] Therefore, it was concluded that DNP-GN3 is able to mediate the depletion of a monoclonal antibody from serum, and functions across a wide range of target protein concentrations and dosing regimens.
DNP-GN3 was also found to be efficacious in depleting polyclonal α-DNP antibody from serum collected from mice immunized with DNP-keyhole limpet haemocyanin (KLH) (FIG. 97). […] Thus, the small molecule DNP-GN3 is not restricted in function to only monoclonal mouse antibodies, but is also effective at removing polyclonal α-DNP antibodies from circulation in mice.
On the technique in general: An ELISA detects its analyte on a solid surface through an enzyme-linked reagent.

Series [4] concerns ASGPR on the surface of HepG2 cells. Kind of series: DNP-AF3-mediated ternary complex formation: α-DNP antibody association with HepG2 cells (flow cytometry). Format: cell-based, human. Particulars: 40 nM DNP-AF3, 100 nM α-DNP antibody; FIG. 99; read-out: IC50, inhibition of DNP-AF3-mediated ternary complex formation. The protocol: DNP-AF3 utilizes trivalent display of a higher affinity ASGPR ligand to engage the receptor. First, the effect of DNP-AF3 concentration on α-DNP antibody association with cells was determined (FIG. 98). In these experiments, a constant amount of α-DNP antibody and cells was incubated with various concentrations of DNP-AF3. The mean fluorescence intensity of the cell population was measured using flow cytometry. In order to account for background cellular fluorescence and non-DNP-AF3 mediated antibody association with cells, the mean fluorescence intensity of a sample of cells which had been treated with α-DNP antibody but not DNP-AF3 was subtracted from each data point.
Next, whether increasing concentrations of a competitive binder of the α-DNP antibody inhibits ternary complex formation was investigated. […] However, different preparations of the HepG2 cells and/or compound gave varying mean fluorescence intensity for the cell population between different independent experimental replicates. Therefore, for competition studies, inhibition of ternary complex formation was reported rather than mean fluorescence intensity of the cell population. 100% ternary complex formation is corrected to the fluorescence of a cell population treated with both 40 nM DNP-AF3 and 100 nM α-DNP antibody, while 0% ternary complex formation is corrected to a mixture of cells and α-DNP antibody without DNP-AF3.
In general terms: A flow cytometer gives signals particle by particle.

Series [5] concerns HepG2 cells. Kind of series: DNP-AF3-mediated endocytosis of fluorescently labeled α-DNP antibody by HepG2 cells (flow cytometry). Format: cell-based, human. Particulars: 40 nM DNP-AF3, 100 nM antibody; ASF 2.07 μM; AF and GalNAc 1.25 mM; FIG. 105. As for the experimental part:
The intracellular fluorescence of cells that were incubated at 37° C. with both fluorescently labeled α-DNP antibody and DNP-AF3 for a given amount of time was examined. Cells were then washed, removed from the plate with trypsin, and subjected to flow cytometry. Trypsin treatment is expected to cleave ASGPR and surface-bound α-DNP antibody from cells, and therefore the cellular fluorescence observed in these assays is expected to arise only from internalized antibodies.
It was then determined if reagents which inhibit ternary complex formation inhibit endocytosis mediated by DNP-AF3. In order to account for non-specific antibody association with cells, the mean fluorescence intensity of an aliquot of cells which had been treated with α-DNP antibody but not DNP-AF3 was subtracted from each reading. […] In the presence of 2.38 μM (0.1 mg/mL) ASOR, the cell population fluorescence was decreased to 4.66e5 (FIG. 105); at this ASOR concentration, ternary complex formation is decreased by approximately 70%. Because ternary complex is not inhibited completely at this concentration of ASOR, it is expected that productive endocytic events are still taking place.

Series [6] deals with HepG2 cells. The series can be described thus: DNP-GN3-mediated endocytosis of fluorescently labeled α-DNP antibody by adherent HepG2 cells. Type of series: cell-based, human. The following applies: competitive binders at high concentrations; FIG. 88.
Series [7] relates to α-DNP antibody. Kind of series: Depletion of α-DNP antibody from serum in mice (ELISA). Format: in vivo. The following applies: i.p.; FIG. 79A.
For series [8], the target named is T1, ASGPR on the surface of immortalized human hepatocyte HepG2 cells (Homo sapiens, UniProt P07306+P07307).
T1 sequence (P07306 1-291): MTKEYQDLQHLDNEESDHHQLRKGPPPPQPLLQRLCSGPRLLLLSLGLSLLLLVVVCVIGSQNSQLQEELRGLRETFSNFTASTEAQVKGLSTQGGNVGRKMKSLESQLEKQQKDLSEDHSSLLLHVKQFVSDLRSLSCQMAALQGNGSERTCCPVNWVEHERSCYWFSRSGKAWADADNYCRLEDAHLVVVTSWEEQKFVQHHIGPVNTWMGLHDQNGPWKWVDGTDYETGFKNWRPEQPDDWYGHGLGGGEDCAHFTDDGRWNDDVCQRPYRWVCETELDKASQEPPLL
T1 sequence (P07307 1-311): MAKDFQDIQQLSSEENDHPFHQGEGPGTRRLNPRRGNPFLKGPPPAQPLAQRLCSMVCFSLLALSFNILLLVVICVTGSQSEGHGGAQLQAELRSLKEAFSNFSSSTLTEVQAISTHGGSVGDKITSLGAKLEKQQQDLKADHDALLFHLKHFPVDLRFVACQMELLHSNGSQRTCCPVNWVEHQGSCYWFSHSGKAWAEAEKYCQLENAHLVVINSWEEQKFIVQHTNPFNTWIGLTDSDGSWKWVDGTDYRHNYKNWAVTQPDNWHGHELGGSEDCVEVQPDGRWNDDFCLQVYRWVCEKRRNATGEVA
Kind of series: DNP-GN3-mediated ternary complex formation: association of fluorescently labeled α-DNP antibody with HepG2 cells in suspension. Type of series: cell-based.
Source text: as §1

Usually IC50 stands for the concentration at which inhibition is half-maximal.

For the compound `O=C(CCOCC(COCCC(=O)NCCOCCOCCO)(COCCC(=O)NCCOCCOCCO)NC(=O)CNC(=O)COCCOCCOCCNc1ccc([N+](=O)[O-])cc1[N+](=O)[O-])NCCOCCOCCO` [DNP-OH3, reference compound], the IC50 in series [1] was 36 nM; in series [4] it was 40.6 nM. The toxicity to mice entry in series [2] is listed as “not toxic”. The “antibody depletion from serum” value in series [3] is given as “No accelerated antibody depletion”. Besides, the “effect on DNP-AF3-mediated α-DNP antibody endocytosis” value in series [5] was “decreased to near-background levels”. The “effect on DNP-GN3-mediated α-DNP antibody endocytosis” value in series [6] is on record as “significantly decreased”. The “degradation of injected anti-DNP IgG antibodies in mouse serum” value in series [7] was “did not show such effect”.

`CC(=O)N[C@H]1C(O)O[C@H](CO)[C@H](O)[C@@H]1O` (stereo partly shown) [GalNAc, N-acetylgalactosamine] yielded an IC50 in series [8] of 200000 nM. Moreover, the “effect on DNP-AF3-mediated α-DNP antibody endocytosis” value in series [5] is “significantly decreased cellular fluorescence”. Besides, the “effect on DNP-GN3-mediated α-DNP antibody endocytosis” value in series [6] was “significantly decreased”.

These data come from patent US20230087994A1, “TARGETED BIFUNCTIONAL DEGRADERS” (YALE UNIVERSITY, priority 2019, published 2023).
